Results: US11192865B2, “Benzosulfonyl compounds” (Vivace Therapeutics, Inc., priority 2017, dated 2021)

test system: 8XTBD luciferase reporter; test: YAP Reporter Assay; format: cell-based; conditions: Homo sapiens, HEK-293T; HEK293T cells stably transfected with 8XTBD luciferase reporter and pRLTK; 24-hr incubation; starting from 3 μM, 1:3 dilution, 10 points; read-out: Firefly Luciferase IC50
Method in brief: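 HEK293T cells stably carrying the 8XTBD firefly luciferase reporter and TK-renilla control received compounds at a 10-point, 1:3 series from 3 μM (final) in quadruplicate. After 24 h at 37° C, Dual-Glo luminescence was read. IC50 and maximal inhibition were reported separately for firefly and renilla signals.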

Row | IC50 [nM] | SMILES
1 | 100 to 1000 | CNS(=O)(=O)c1ccc(Nc2ccc(C(F)(F)F)cc2)c(-c2nnc(N)o2)c1 [Compound 133, 3-(5-amino-1,3,4-oxadiazol-2-yl)-N-methyl-4-[4-(trifluoromethyl)anilino]benzene-sulfonamide]
2 | 100 to 1000 | CNS(=O)(=O)c1ccc(Nc2cccc(Oc3ccccc3)c2)c(-c2nnn(C)n2)c1 [Compound 134, N-methyl-3-(2-methyltetrazol-5-yl)-4-(3-phenoxyanilino)benzenesulfonamide]
3 | ≤ 100 | CNS(=O)(=O)c1ccc(Nc2cccc(C(F)(F)F)c2)c(-c2nnn(Cc3ccccc3F)n2)c1 [Compound 136, 3-[2-[(2-Fluorophenyl)methyl]tetrazol-5-yl]-N-methyl-4-[3-(trifluoromethyl)anilino]benzene-sulfonamide]
4 | ≤ 100 | CNS(=O)(=O)c1ccc(Nc2ccc(C(F)(F)F)cc2)c(-c2nnn(Cc3ccccc3F)n2)c1 [Compound 137, 3-[2-[(2-Fluorophenyl)methyl]tetrazol-5-yl]-N-methyl-4-[4-(trifluoromethyl)anilino]benzene-sulfonamide]
5 | ≤ 100 | CNS(=O)(=O)c1ccc(Nc2ccc(Cl)cc2)c(-c2cn(C)cn2)c1 [Compound 139, 4-(4-chloroanilino)-N-methyl-3-(1-methylimidazol-4-yl)benzenesulfonamide]
6 | ≤ 100 | CNS(=O)(=O)c1ccc(Nc2ccc(Cl)c(Cl)c2)c(-c2cn(C)cn2)c1 [Compound 140, 4-(3,4-dichloroanilino)-N-methyl-3-(1-methylimidazol-4-yl)benzenesulfonamide]
7 | ≤ 100 | CNS(=O)(=O)c1ccc(Nc2cccc(SC(F)(F)F)c2)c(-c2cn(C)cn2)c1 [Compound 141, N-methyl-3-(1-methylimidazol-4-yl)-4-[3-(trifluoromethylsulfanyl)anilino] benzenesulfonamide]
8 | ≤ 100 | CNS(=O)(=O)c1ccc(Nc2cc(Cl)cc(Cl)c2)c(-c2cn(C)cn2)c1 [Compound 142, 4-(3,5-dichloroanilino)-N-methyl-3-(1-methylimidazol-4-yl)benzenesulfonamide]
9 | ≤ 100 | CNS(=O)(=O)c1ccc(Nc2cccc(Cl)c2)c(-c2cn(C)cn2)c1 [Compound 143, 4-(3-Chloroanilino)-N-methyl-3-(1-methylimidazol-4-yl)benzenesulfonamide]
10 | ≤ 100 | CNS(=O)(=O)c1ccc(Nc2ccc(SC(F)(F)F)cc2)c(-c2cn(C)cn2)c1 [Compound 144, N-methyl-3-(1-methylimidazol-4-yl)-4-[4-(trifluoromethylsulfanyl)anilino] benzenesulfonamide]
11 | ≤ 100 | CNS(=O)(=O)c1ccc(Nc2cc(Cl)c(Cl)c(Cl)c2)c(-c2cn(C)cn2)c1 [Compound 145, N-methyl-3-(1-methylimidazol-4-yl)-4-(3,4,5-trichloroanilino)benzenesulfonamide]
12 | 100 to 1000 | CNS(=O)(=O)c1ccc(Nc2cc(C(F)(F)F)cc(C(F)(F)F)c2)c(-c2cn(C)cn2)c1 [Compound 146, 4-[3,5-Bis(trifluoromethyl)anilino]-N-methyl-3-(1-methylimidazol-4-yl)benzenesulfonamide]
13 | ≤ 100 | CNS(=O)(=O)c1ccc(Nc2ccc(Cl)c(C(F)(F)F)c2)c(-c2cn(C)cn2)c1 [Compound 147, 4-[4-Chloro-3-(trifluoromethyl)anilino]-N-methyl-3-(1-methylimidazol-4-yl)benzenesulfonamide]
14 | ≤ 100 | CNS(=O)(=O)c1ccc(Nc2ccc(C(F)(F)F)c(Cl)c2)c(-c2cn(C)cn2)c1 [Compound 148, 4-[3-Chloro-4-(trifluoromethyl)anilino]-N-methyl-3-(1-methylimidazol-4-yl)benzenesulfonamide]
15 | ≤ 100 | CNS(=O)(=O)c1ccc(Nc2c(F)cccc2F)c(-c2cn(C)cn2)c1 [Compound 149, 4-((2,6-Difluorophenyl)amino)-N-methyl-3-(1-methyl-1H-imidazol-4-yl)benzenesulfonamide]
16 | ≤ 100 | CNS(=O)(=O)c1ccc(N[C@H]2CC[C@@H](C(F)(F)F)CC2)c(-c2cn(C)cn2)c1 [Compound 150, N-methyl-3-(1-methyl-1H-imidazol-4-yl)-4-(((1s,4s)-4-(trifluoromethyl)cyclohexyl)amino) benzenesulfonamide]
17 | ≤ 100 | CNS(=O)(=O)c1ccc(N[C@H]2CC[C@H](C(F)(F)F)CC2)c(-c2cn(C)cn2)c1 [Compound 151, N-methyl-3-(1-methyl-1H-imidazol-4-yl)-4-(((1r,4r)-4-(trifluoromethyl)cyclohexyl)amino) benzenesulfonamide]
18 | 1000 to 3000 | CNS(=O)(=O)c1ccc(Nc2cccc(C(F)(F)F)c2)c(-c2ccnc(N)c2)c1 [Compound 152, 3-(2-Aminopyridin-4-yl)-N-methyl-4-((3-(trifluoromethyl)phenyl)amino) benzenesulfonamide]
